According to patent US10632125B2, “MTH1 inhibitors for treatment of inflammatory and autoimmune conditions” (THOMAS HELLEDAYS STIFTELSE FÖR MEDICINSK FORSKNING, priority 2014, dated 2020):

Target: MTH1 (Homo sapiens, UniProt P36639)
Experiment: MTH1 enzymatic assay (malachite green, coupled to pyrophosphatase)
Assay type: biochemical
Settings: dGTP 100 μM, MTH1 6 nM; 96- or 384-well format; read-out: IC50

Compound	IC50
Cc1c(NC(=O)c2ccc(Cl)cc2O)cccc1-c1cc(NCCc2ccc(S(C)(=O)=O)cc2)nc(N)n1 [Example 516, N-[3-(2-amino-6-{[2-(4-methanesulfonylphenyl)ethyl]amino}pyrimidin-4-yl)-2-methylphenyl]-4-chloro-2-hydroxybenzamide]	< 200 nM
Cc1cccc(-c2cc(NCCc3c[nH]c4ccc(O)cc34)nc(N)n2)c1C [Example 517, 3-(2-{[2-amino-6-(2,3-dimethylphenyl)pyrimidin-4-yl]amino}ethyl)-1H-indol-5-ol]	< 200 nM
Cc1cccc(-c2cc(NCCc3c[nH]c4ccc(OCc5ccccc5)cc34)nc(N)n2)c1C [Example 518, 4-N-{2-[5-(benzyloxy)-1H-indol-3-yl]ethyl}-6-(2,3-dimethylphenyl)pyrimidine-2,4-diamine]	< 200 nM
Cc1cccc(-c2cc(NCCc3c[nH]c4ccc(Br)cc34)nc(N)n2)c1C [Example 519, 4-N-[2-(5-bromo-1H-indol-3-yl)ethyl]-6-(2,3-dimethylphenyl)pyrimidine-2,4-diamine]	< 200 nM
COc1ccc2[nH]cc(CCNc3cc(-c4cccc(C)c4C)nc(N)n3)c2c1 [Example 520, 6-(2,3-dimethylphenyl)-4-N-[2-(5-methoxy-1H-indol-3-yl)ethyl]pyrimidine-2,4-diamine]	< 200 nM
Cc1cccc(-c2cc(NCCc3c[nH]c4c(C)cccc34)nc(N)n2)c1C [Example 521, 6-(2,3-dimethylphenyl)-4-N-[2-(7-methyl-1H-indol-3-yl)ethyl]pyrimidine-2,4-diamine]	< 200 nM
Cc1cccc(-c2cc(NCCc3c[nH]c4c(OCc5ccccc5)cccc34)nc(N)n2)c1C [Example 522, 4-N-{2-[7-(benzyloxy)-1H-indol-3-yl]ethyl}-6-(2,3-dimethylphenyl)pyrimidine-2,4-diamine]	< 200 nM
COc1ccc2c(CCNc3cc(-c4cccc(C)c4C)nc(N)n3)c[nH]c2c1 [Example 523, 6-(2,3-dimethylphenyl)-4-N-[2-(6-methoxy-1H-indol-3-yl)ethyl]pyrimidine-2,4-diamine]	< 200 nM
CC1CC1Nc1cc(-c2cccc(Cl)c2Cl)nc(N)n1 (stereo not drawn) [Example 524, 6-(2,3-dichlorophenyl)-4-N-(2-methylcyclopropyl)pyrimidine-2,4-diamine]	< 200 nM
Cc1cccc(-c2cc(NCCNc3ccc(-c4nnn[nH]4)cc3)nc(N)n2)c1C [Example 543, 6-(2,3-dimethylphenyl)-4-N-(2-{[4-(1H-1,2,3,4-tetrazol-5-yl)phenyl]amino}ethyl)pyrimidine-2,4-diamine]	< 200 nM
COc1ccc(NCCNc2cc(-c3cccc(C)c3C)nc(N)n2)cc1S(=O)(=O)O [Example 545, 5-[(2-{[2-amino-6-(2,3-dimethylphenyl)pyrimidin-4-yl]amino}ethyl)amino]-2-methoxybenzene-1-sulfonic Acid]	< 200 nM
Nc1nc(NCCc2ccc(S(N)(=O)=O)cc2)cc(C2=CCN(S(=O)(=O)C3CC3)CC2)n1 [Example 555, 4-[2-({2-amino-6-[1-(cyclopropanesulfonyl)-1,2,3,6-tetrahydropyridin-4-yl]pyrimidin-4-yl}amino)ethyl]benzene-1-sulfonamide]	< 200 nM
Cc1cccc(-c2cc(NCCNc3cc(-c4cccc(C)c4C)nc(N)n3)nc(N)n2)c1C [Example 561, 4-N-(2-{[2-amino-6-(2,3-dimethylphenyl)pyrimidin-4-yl]amino}ethyl)-6-(2,3-dimethylphenyl)pyrimidine-2,4-diamine]	< 200 nM
Cc1c(Cl)cccc1-c1cc(NC2CC2C)nc(N)n1 (stereo not drawn) [Example 581, 6-(3-chloro-2-methylphenyl)-4-N-(2-methylcyclopropyl)pyrimidine-2,4-diamine]	< 200 nM
Cc1cccc(-c2cc(NC3CNC3)nc(N)n2)c1C [Example 589, 4-N-(azetidin-3-yl)-6-(2,3-dimethylphenyl)pyrimidine-2,4-diamine]	2000 to 10000 nM
Cc1c(Cl)cccc1-c1cc(NCCc2ccc(NC(=O)C3CC3)cc2)nc(N)n1 [Example 597, N-[4-(2-{[2-amino-6-(3-chloro-2-methylphenyl)pyrimidin-4-yl]amino}ethyl)phenyl]cyclopropanecarboxamide]	< 200 nM
Cc1cccc(-c2cc(NCCc3cccs3)nc(N)n2)c1C [Example 598, 6-(2,3-dimethylphenyl)-4-N-[2-(thiophen-2-yl)ethyl]pyrimidine-2,4-diamine]	< 200 nM
Cc1c(Cl)cccc1-c1cc(NCCc2ccc(Cl)c(Cl)c2)nc(N)n1 [Example 599, 6-(3-chloro-2-methylphenyl)-4-N-[2-(3,4-dichlorophenyl)ethyl]pyrimidine-2,4-diamine]	< 200 nM
Cc1c(Cl)cccc1-c1cc(NCCc2ccc(Cl)cc2Cl)nc(N)n1 [Example 600, 6-(3-chloro-2-methylphenyl)-4-N-[2-(2,4-dichlorophenyl)ethyl]pyrimidine-2,4-diamine]	< 200 nM
Cc1c(Cl)cccc1-c1cc(NCCc2ccc(C#N)cc2)nc(N)n1 [Example 625, 4-(2-{[2-amino-6-(3-chloro-2-methylphenyl)pyrimidin-4-yl]amino}ethyl)benzonitrile]	< 200 nM
CNc1cc(C#Cc2ccccc2)nc(N)n1 [Example 626, 4-N-methyl-6-(2-phenylethynyl)pyrimidine-2,4-diamine]	< 200 nM

Compound	IC50
Cc1c(Cl)cccc1-c1cc(NCCNc2ccc3c(=O)[nH]cnc3c2)nc(N)n1 [Example 632, 7-[2-[[2-amino-6-(3-chloro-2-methyl-phenyl)pyrimidin-4-yl]amino]ethylamino]-3H-quinazolin-4-one]	< 200 nM
Cc1c(Cl)cccc1-c1cc(NCCc2ccc(N)cc2)nc(N)n1 [Example 642, N4-[2-(4-aminophenyl)ethyl]-6-(3-chloro-2-methyl-phenyl)pyrimidine-2,4-diamine]	< 200 nM
Cc1c(Cl)cccc1-c1cc(NCCNS(=O)(=O)c2cccc(F)c2)nc(N)n1 [Example 660, N-[2-[[2-amino-6-(3-chloro-2-methyl-phenyl)pyrimidin-4-yl]amino]ethyl]-3-fluoro-benzenesulfonamide]	< 200 nM
Cc1c(Cl)cccc1-c1cc(NCCNC(=O)Nc2cccc(F)c2)nc(N)n1 [Example 663, 1-[2-[[2-amino-6-(3-chloro-2-methyl-phenyl)pyrimidin-4-yl]amino]ethyl]-3-(3-fluorophenyl)urea]	< 200 nM
Cc1c(Cl)cccc1-c1cc(NC2CN(c3ccc(S(N)(=O)=O)cc3)C2)nc(N)n1 [Example 667]	2000 to 10000 nM
Cc1c(Cl)cccc1-c1cc(NCCCNC(=O)OC(C)(C)C)nc(N)n1 [Example 668, tert-butyl N-[3-[[2-amino-6-(3-chloro-2-methyl-phenyl)pyrimidin-4-yl]amino]propyl]carbamate]	< 200 nM
Cc1c(Cl)cccc1-c1cc(NCCCCc2ccccc2)nc(N)n1 [Example 680, 6-(3-chloro-2-methyl-phenyl)-N4-(4-phenylbutyl)pyrimidine-2,4-diamine]	< 200 nM
Cc1c(Cl)cccc1-c1cc(NCCC2=CCCCC2)nc(N)n1 [Example 681, 6-(3-chloro-2-methyl-phenyl)-N4-[2-(cyclohexen-1-yl)ethyl]pyrimidine-2,4-diamine]	< 200 nM
C=CCCNc1cc(-c2cccc(Cl)c2C)nc(N)n1 [Example 682, N4-but-3-enyl-6-(3-chloro-2-methyl-phenyl)pyrimidine-2,4-diamine]	< 200 nM
Cc1c(Cl)cccc1-c1cc(NCCNc2cccc3c(S(=O)(=O)O)cccc23)nc(N)n1 [Example 683, 5-[2-[[2-amino-6-(3-chloro-2-methyl-phenyl)pyrimidin-4-yl]amino]ethylamino]naphthalene-1-sulfonic acid]	< 200 nM
Cc1c(Cl)cccc1-c1cc(NCCOCC2CC2)nc(N)n1 [Example 684, 6-(3-chloro-2-methyl-phenyl)-N4-[2-(cyclopropylmethoxy)ethyl]pyrimidine-2,4-diamine]	< 200 nM
Cc1c(Cl)cccc1-c1cc(NCC=C(F)F)nc(N)n1 [Example 686, 6-(3-chloro-2-methyl-phenyl)-N4-(3,3-difluoroallyl)pyrimidine-2,4-diamine]	< 200 nM
Cc1c(Cl)cccc1-c1cc(NCCC(F)(F)Br)nc(N)n1 [Example 687, N4-(3-bromo-3,3-difluoro-propyl)-6-(3-chloro-2-methyl-phenyl)pyrimidine-2,4-diamine]	< 200 nM
Cc1c(Cl)cccc1-c1cc(NCCSCCc2ccccc2)nc(N)n1 [Example 690, 6-(3-chloro-2-methylphenyl)-N4-{2-[(2-phenylethyl)sulfanyl]ethyl}pyrimidine-2,4-diamine]	< 200 nM
Cc1c(Cl)cccc1-c1cc(NCC[S+]([O-])CCc2ccccc2)nc(N)n1 (stereo not drawn) [Example 692, 6-(3-chloro-2-methyl-phenyl)-N4-[2-(2-phenylethylsulfinyl)ethyl]pyrimidine-2,4-diamine]	2000 to 10000 nM
Cc1cc(CSCCNc2cc(-c3cccc(Cl)c3C)nc(N)n2)no1 [Example 700, 6-(3-chloro-2-methyl-phenyl)-N4-[2-[(5-methylisoxazol-3-yl)methylsulfanyl]ethyl]pyrimidine-2,4-diamine]	< 200 nM
Cc1noc(C)c1CCNc1cc(-c2cccc(Cl)c2C)nc(N)n1 [Example 701, 6-(3-chloro-2-methyl-phenyl)-N4-[2-(3,5-dimethylisoxazol-4-yl)ethyl]pyrimidine-2,4-diamine]	< 200 nM
CCCNc1cc(-c2cccc(Cl)c2C)nc(N)n1 [Example 702, 6-(3-chloro-2-methyl-phenyl)-N4-propyl-pyrimidine-2,4-diamine]	< 200 nM
CCCCNc1cc(-c2cccc(Cl)c2C)nc(N)n1 [Example 703, N4-butyl-6-(3-chloro-2-methyl-phenyl)pyrimidine-2,4-diamine]	< 200 nM
COCCNc1cc(-c2cccc(Cl)c2C)nc(N)n1 [Example 704, 6-(3-chloro-2-methyl-phenyl)-N4-(2-methoxyethyl)pyrimidine-2,4-diamine]	< 200 nM
CCOCCCNc1cc(-c2cccc(Cl)c2C)nc(N)n1 [Example 705, 6-(3-chloro-2-methyl-phenyl)-N4-(3-ethoxypropyl)pyrimidine-2,4-diamine]	< 200 nM
